We go through 21 compounds from US20230081426A1, “COMPOUNDS AND METHODS FOR KRAS MODULATION AND INDICATIONS THEREFOR” (Plexxikon Inc., priority 2020, published 2023).

Assay [1] deals with T1, G12D-mutant human KRAS (amino acid residues 1-188) (Homo sapiens, UniProt P01116, G12D).
T1 construct: G12D or G12C-mutant human KRAS (amino acid residues 1-188) with FLAG tag; made in house; host or cells: E. coli
As to the kind of experiment: KRAS Binding Disruption Assay (AlphaScreen; biotinylated KRpep-2d analogue or RAF1-RBD), G12D. The note with it: KRAS G12D; geometric mean; read-out: KRAS GMean IC50 (uM) MUTATION: G12D. The gist of the method:
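Displacement format with mutant KRAS, biotinylated KRpep-2d analogue or RAF1-RBD (5-20 nM each) at pH 7.5 with 5 mM MgCl2.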
For orientation: In Alpha technology, singlet oxygen from a donor bead excites a nearby acceptor bead.

Assay [2] has as its target T2, G12V-mutant human KRAS (amino acid residues 1-188) (Homo sapiens, UniProt P01116, G12V).
T2 construct: G12V-mutant human KRAS (amino acid residues 1-188) with FLAG tag was purified from E. coli; made in house; host or cells: E. coli
Kind of assay: KRAS Binding Competition Assay (AlphaScreen; biotinylated KRpep-2d analogue), G12V. The note with it: geometric mean, read-out: KRAS GMean IC50 (uM) MUTATION: G12V.

The term IC50 denotes the concentration at which inhibition is half-maximal. Consider `CN1CCC[C@H]1COc1nc(N2[C@@H]3CC[C@H]2CN(C(=O)CCCn2ccnc2)C3)c2ccc(-c3cc(O)cc4ccccc34)cc2n1` [P-0195, 1-((1R,5S)-8-(7-(3-hydroxynaphthalen-1-yl)-2-(((S)-1-methylpyrrolidin-2-yl)methoxy)quinazolin-4-yl)-3,8-diazabicyclo[3.2.1]octan-3-yl)-4-(1H-imidazol-1-yl)butan-1-one], for which the IC50 in assay [1] and in assay [2] was 10 to 100 µM each time.

For the compound `CN1CCC[C@H]1COc1nc(N2[C@@H]3CC[C@H]2CN(C(=O)CC2CCCC2O)C3)c2ccc(-c3cc(O)cc4ccccc34)cc2n1` (stereo partly drawn) [P-0196, 2-(2-hydroxycyclopentyl)-1-((1R,5S)-8-(7-(3-hydroxynaphthalen-1-yl)-2-(((S)-1-methylpyrrolidin-2-yl)methoxy)quinazolin-4-yl)-3,8-diazabicyclo[3.2.1]octan-3-yl)ethan-1-one], the IC50 in assay [1] and in assay [2] was 10 to 100 µM in each case.

For `N#Cc1ccc(CCc2nc(N3[C@@H]4CC[C@H]3CNC4)c3ccc(-c4cc(O)cc5ccccc45)cc3n2)cc1` [P-0197, 4-(2-(4-((1R,5S)-3,8-diazabicyclo[3.2.1]octan-8-yl)-7-(3-hydroxynaphthalen-1-yl)quinazolin-2-yl)ethyl)benzonitrile], the IC50 lay within 0.0001 to 10 µM in assay [1] and 10 to 100 µM in assay [2].

Consider `O=C(O)CCc1nc(N2[C@@H]3CC[C@H]2CNC3)c2ccc(-c3cc(O)cc4ccccc34)cc2n1` [P-0198, 3-(4-((1R,5S)-3,8-diazabicyclo[3.2.1]octan-8-yl)-7-(3-hydroxynaphthalen-1-yl)quinazolin-2-yl)propanoic acid], for which the IC50 in assay [1] lay in the range of 0.0001 to 10 µM; in assay [2], 10 to 100 µM.

Take `CN(C)C(=O)CCc1nc(N2[C@@H]3CC[C@H]2CNC3)c2ccc(-c3cc(O)cc4ccccc34)cc2n1` [P-0199, 3-(4-((1R,5S)-3,8-diazabicyclo[3.2.1]octan-8-yl)-7-(3-hydroxynaphthalen-1-yl)quinazolin-2-yl)-N,N-dimethylpropanamide]: the IC50 in assay [1] and in assay [2] was 10 to 100 µM throughout.

On to `Oc1cc(-c2ccc3c(N4[C@@H]5CC[C@H]4CNC5)nc(CC4CCNCC4)nc3c2)c2ccccc2c1` [P-0200, 4-(4-((1R,5S)-3,8-diazabicyclo[3.2.1]octan-8-yl)-2-(piperidin-4-ylmethyl)quinazolin-7-yl)naphthalen-2-ol], for which the IC50 was in the range of 0.0001 to 10 µM in assay [1] and 10 to 100 µM in assay [2].

For `CN1CCC(Cc2nc(N3[C@@H]4CC[C@H]3CNC4)c3ccc(-c4cc(O)cc5ccccc45)cc3n2)CC1` [P-0201, 4-(4-((1R,5S)-3,8-diazabicyclo[3.2.1]octan-8-yl)-2-((1-methylpiperidin-4-yl)methyl)quinazolin-7-yl)naphthalen-2-ol], the IC50 in assay [1] was in the range of 0.0001 to 10 µM; in assay [2] it was 10 to 100 µM.

As to `CN1CCC[C@H]1COc1nc(N2[C@@H]3CC[C@H]2CN(C(=O)[C@@H]2C[C@@H](O)CN2)C3)c2ccc(-c3cc(O)cc4ccccc34)cc2n1` [P-0202, ((1R,5S)-8-(7-(3-hydroxynaphthalen-1-yl)-2-(((S)-1-methylpyrrolidin-2-yl)methoxy)quinazolin-4-yl)-3,8-diazabicyclo[3.2.1]octan-3-yl)((2S,4R)-4-hydroxypyrrolidin-2-yl)methanone], the IC50 lay within 0.0001 to 10 µM in assay [1] and 10 to 100 µM in assay [2].

Turning to `CN1CCN(CCCS(=O)(=O)N2[C@@H]3CC[C@H]2CN(c2nc(OCC45CCCN4CCC5)nc4c(F)c(-c5cc(O)cc6ccccc56)ccc24)C3)CC1` [P-0203, 4-(8-fluoro-4-((1R,5S)-8-((3-(4-methylpiperazin-1-yl)propyl)sulfonyl)-3,8-diazabicyclo[3.2.1]octan-3-yl)-2-((tetrahydro-1H-pyrrolizin-7a(5H)-yl)methoxy)quinazolin-7-yl)naphthalen-2-ol], the IC50 in assay [1] and in assay [2] was 0.0001 to 10 µM in each case.

For the compound `CN1CCC[C@H]1COc1nc(N2[C@@H]3CC[C@H]2CN(C(=O)[C@@H]2C[C@@H](O)CN2)C3)c2ccc(-c3cc(O)cc4ccccc34)cc2n1` [P-0204, ((1R,5S)-8-(7-(3-hydroxynaphthalen-1-yl)-2-(((S)-1-methylpyrrolidin-2-yl)methoxy)quinazolin-4-yl)-3,8-diazabicyclo[3.2.1]octan-3-yl)((2S,4R)-4-hydroxypyrrolidin-2-yl)methanone], the IC50 in assay [1] and in assay [2] was 10 to 100 µM in each case.

For the compound `CN1CCC[C@H]1COc1nc(N2[C@@H]3CC[C@H]2CN(C(=O)[C@H]2CCCN2)C3)c2ccc(-c3cc(O)cc4ccccc34)cc2n1` [P-0205, 4-((1R,5S)-3-(D-prolyl)-3,8-diazabicyclo[3.2.1]octan-8-yl)-7-(3-hydroxynaphthalen-1-yl)-2-(((S)-1-methylpyrrolidin-2-yl)methoxy)quinazoline], the IC50 lay in the range of 10 to 100 µM in assay [1] and 100 to 1000 µM in assay [2].

In the case of `CNCC(=O)N1C[C@H]2CC[C@@H](C1)N2c1nc(OC[C@@H]2CCCN2C)nc2cc(-c3cc(O)cc4ccccc34)ccc12` [P-0206, 1-((1R,5S)-8-(7-(3-hydroxynaphthalen-1-yl)-2-(((S)-1-methylpyrrolidin-2-yl)methoxy)quinazolin-4-yl)-3,8-diazabicyclo[3.2.1]octan-3-yl)-2-(methylamino)ethan-1-one], the IC50 in assay [1] and in assay [2] was 10 to 100 µM each time.

Take `CN1CCC[C@H]1COc1nc(N2[C@@H]3CC[C@H]2CN(C(=O)Cn2ccnc2)C3)c2ccc(-c3cc(O)cc4ccccc34)cc2n1` [P-0207, 1-((1R,5S)-8-(7-(3-hydroxynaphthalen-1-yl)-2-(((S)-1-methylpyrrolidin-2-yl)methoxy)quinazolin-4-yl)-3,8-diazabicyclo[3.2.1]octan-3-yl)-2-(1H-imidazol-1-yl)ethan-1-one]: the IC50 in assay [1] and in assay [2] was 10 to 100 µM in each case.

Consider `CN1CCC[C@H]1COc1nc(N2[C@@H]3CC[C@H]2CN(C(=O)NC2CN4CCC2CC4)C3)c2ccc(-c3cc(O)cc4ccccc34)cc2n1` (stereo partly drawn) [P-0208, (1R,5S)-8-(7-(3-hydroxynaphthalen-1-yl)-2-(((S)-1-methylpyrrolidin-2-yl)methoxy)quinazolin-4-yl)-N-(quinuclidin-3-yl)-3,8-diazabicyclo[3.2.1]octane-3-carboxamide], for which the figures for the IC50 in assay [1] and in assay [2] were 0.0001 to 10 µM and 10 to 100 µM, respectively.

Take `CN1CCN(CCNC(=O)N2C[C@H]3CC[C@@H](C2)N3c2nc(OC[C@@H]3CCCN3C)nc3cc(-c4cc(O)cc5ccccc45)ccc23)CC1` [P-0209, (1R,5S)-8-(7-(3-hydroxynaphthalen-1-yl)-2-(((S)-1-methylpyrrolidin-2-yl)methoxy)quinazolin-4-yl)-N-(2-(4-methylpiperazin-1-yl)ethyl)-3,8-diazabicyclo[3.2.1]octane-3-carboxamide]: the IC50 in assay [1] and in assay [2] was 10 to 100 µM in each case.

With `CN1CCC[C@H]1COc1nc(N2[C@@H]3CC[C@H]2CN(C(=O)Nc2cccnc2)C3)c2ccc(-c3cc(O)cc4ccccc34)cc2n1` [P-0210, (1R,5S)-8-(7-(3-hydroxynaphthalen-1-yl)-2-(((S)-1-methylpyrrolidin-2-yl)methoxy)quinazolin-4-yl)-N-(pyridin-3-yl)-3,8-diazabicyclo[3.2.1]octane-3-carboxamide], the IC50 in assay [1] and in assay [2] was 10 to 100 µM throughout.

For the compound `CN1CCC[C@H]1COc1nc(N2[C@@H]3CC[C@H]2CN(C(=O)NCC(N)=O)C3)c2ccc(-c3cc(O)cc4ccccc34)cc2n1` [P-0211, (1R,5S)-N-(2-amino-2-oxoethyl)-8-(7-(3-hydroxynaphthalen-1-yl)-2-(((S)-1-methylpyrrolidin-2-yl)methoxy)quinazolin-4-yl)-3,8-diazabicyclo[3.2.1]octane-3-carboxamide], the IC50 in assay [1] and in assay [2] was 10 to 100 µM throughout.

In the case of `CN1CCC[C@H]1COc1nc(N2[C@@H]3CC[C@H]2CN(C(=O)NC2COCC2(C)C)C3)c2ccc(-c3cc(O)cc4ccccc34)cc2n1` (stereo partly drawn) [P-0212, (1R,5S)-N-(4,4-dimethyltetrahydrofuran-3-yl)-8-(7-(3-hydroxynaphthalen-1-yl)-2-(((S)-1-methylpyrrolidin-2-yl)methoxy)quinazolin-4-yl)-3,8-diazabicyclo[3.2.1]octane-3-carboxamide], the IC50 in assay [1] and in assay [2] was 10 to 100 µM in each case.

In the case of `CN1CCC[C@H]1COc1nc(N2[C@@H]3CC[C@H]2CN(C(=O)NO)C3)c2ccc(-c3cc(O)cc4ccccc34)cc2n1` [P-0213, (1R,5S)-N-hydroxy-8-(7-(3-hydroxynaphthalen-1-yl)-2-(((S)-1-methylpyrrolidin-2-yl)methoxy)quinazolin-4-yl)-3,8-diazabicyclo[3.2.1]octane-3-carboxamide], the IC50 in assay [1] and in assay [2] was 10 to 100 µM throughout.

As for `CONC(=O)N1C[C@H]2CC[C@@H](C1)N2c1nc(OC[C@@H]2CCCN2C)nc2cc(-c3cc(O)cc4ccccc34)ccc12` [P-0214, (1R,5S)-8-(7-(3-hydroxynaphthalen-1-yl)-2-(((S)-1-methylpyrrolidin-2-yl)methoxy)quinazolin-4-yl)-N-methoxy-3,8-diazabicyclo[3.2.1]octane-3-carboxamide], the IC50 in assay [1] and in assay [2] was 10 to 100 µM each time.

Turning to `CCN1CCC(NC(=O)N2C[C@H]3CC[C@@H](C2)N3c2nc(OC[C@@H]3CCCN3C)nc3cc(-c4cc(O)cc5ccccc45)ccc23)C1` (stereo partly drawn) [P-0215, (1R,5S)-N-(1-ethylpyrrolidin-3-yl)-8-(7-(3-hydroxynaphthalen-1-yl)-2-(((S)-1-methylpyrrolidin-2-yl)methoxy)quinazolin-4-yl)-3,8-diazabicyclo[3.2.1]octane-3-carboxamide], the IC50 in assay [1] lay in the range of 10 to 100 µM; in assay [2], 100 to 1000 µM.
